Laboratory results: patent publication US4232155A, “Purine compounds” (Bristol-Myers Company, priority 1979, dated 1980)
In brackets after ≈: the same amount, converted by molar mass.

Experiments:
[1] = test system: guinea pig; assay: In vivo bronchodilator and hypotensive activity (intratracheal pressure and arterial blood pressure in anesthetized guinea pig); conditions: intravenous; for ED50: Cavia porcellus, bronchodilator activity, read-out: ITP ED50 (dose resulting in a 50% decrease in intratracheal pressure); for ABP ED20 (dose which reduces arterial blood pressure by 20%): hypotensive activity; for Ratio ABP/ITP (hypotensive ED20/bronchodilating ED50): separation of bronchodilator from hypotensive effect
Description: The trachea of anesthetized guinea pig was cannulated and the ITP recorded on a polygraph under artificial ventilation. Arterial blood pressure (ABP; reflecting hypotensive activity) was also measured during the experiment. Either intravenous or intraduodenal routes of administration are used. […] The ratio of hypotensive ED20 /brochodilating ED50 reflects an assessment of the separation of desirable brochodilator activity from undesirable cardiovascular (hypotensive) effect in the compounds.

[2] = test system: Tracheal chains of guinea pig; assay: In vitro bronchodilator activity, relaxation of tracheal chains (Magnus method); conditions: Cavia porcellus, relative to 0.1 mcg./ml. isoproterenol, read-out: EC50 (concentration producing a relaxation which is 50% of the maximum response to 0.1 mcg./ml. of isoproterenol)
Description: Tracheal chains of guinea pig were prepared by the method of A. Akcasu, Arch. Int. […] The response to each test compound was recorded by the Magnus method and expressed as a percentage of the maximum response obtained with 0.1 mcg./ml. of isoproterenol prior to each experiment.

EC50 [2]	SMILES	ED50 [1]	ABP ED20 (dose which reduces arterial blood pressure by 20%) [1]	Ratio ABP/ITP (hypotensive ED20/bronchodilating ED50) [1]
0.21 µg/mL (≈ 0.668 µM)	Nc1nc(NC2CCCCC2)nc2c1ncn2C1CCCCC1 [Example 4, 9-Cyclohexyl-2-cyclohexylamino-9H-adenine]	1.5 mg/kg	> 3 mg/kg	> 2
0.24 µg/mL (≈ 0.768 µM)	Nc1nc(NC2CCCCC2)nc2c1ncn2C1C=CCCC1 (centres unmarked) [Example 2, 9-(2-Cyclohexenyl)-2-cyclohexylamino-9H-adenine]	> 3 mg/kg	2.4 mg/kg	< 0.8
0.47 µg/mL (≈ 1.73 µM)	CCCNc1nc(N)c2ncn(C3C=CCCC3)c2n1 (centres unmarked) [Example 1, 9-(2-Cyclohexenyl)-2-n-propylamino-9H-adenine]	1.4 mg/kg	> 3 mg/kg	> 2.1

More lines, now with the values behind:

SMILES	EC50 [2]	ED50 [1]	ABP ED20 (dose which reduces arterial blood pressure by 20%) [1]	Ratio ABP/ITP (hypotensive ED20/bronchodilating ED50) [1]
Cn1c(=O)c2[nH]cnc2n(C)c1=O [Aminophylline, reference compound]			1.4 mg/kg	
CCCNc1nc(N)c2ncn(C3CCCCC3)c2n1 [Example 3, 9-Cyclohexyl-2-n-propylamino-9H-adenine]	0.75 µg/mL (≈ 2.73 µM)	0.49 mg/kg	2.8 mg/kg	5.7
